# Source: paper PMC3047509 (Journal of the American Chemical Society, 2011)
# Bridge positions count the residues as written; N and C are the ends. Peptide text beside a SMILES is read from it.
# Key:
# CBP BRD = CBP BRD (Homo sapiens, UniProt Q92793); experiment: competition fluorescent polarization; type: binding; conditions: FP competition assay; relative to linear p53-K382ac
# [1] = system: endogenous p53 and p21 proteins in HCT116 cells; experiment: western blot of endogenous p53 and p21 after doxorubicin; type: cell-based, human; conditions: peptide 12 hours, then doxorubicin 300 ng/ml for 24 hrs
# [2] = system: p53-induced p21 activation; experiment: p53-based p21-luciferase assay; type: cell-based, human; conditions: HCT116 cells, doxorubicin treatment
# Chain of CBP BRD (Q92793 1085-1192 limits assumed): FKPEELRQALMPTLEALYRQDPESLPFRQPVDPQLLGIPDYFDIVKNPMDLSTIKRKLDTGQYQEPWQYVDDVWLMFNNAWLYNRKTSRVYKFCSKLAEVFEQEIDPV
fold increase in binding affinity over linear p53-K382ac peptide (CBP BRD) [fold],inhibition of p53-induced p21 luciferase activation [2],Structure (SMILES),protein level of endogenous p53 and p21 [1]
9,–,CC(=O)NCCCC[C@@H]1NC(=O)[C@H](CCCCN)NC(=O)[C@H](Cc2c[nH]cn2)NC(=O)[C@@H](N)CSSC[C@@H](C(=O)N[C@@H](Cc2ccccc2)C(=O)N[C@@H](CCCCN)C(N)=O)NC(=O)[C@H](CC(C)C)NC1=O [compound 1] (H-CHKK(Ac)LCFK-NH2; disulfide 1-6; N-terminus and C-terminus assumed),–
24,dose-dependent inhibition,CC(=O)NCCCC[C@@H]1NC(=O)[C@H](CCCCN)NC(=O)[C@H](Cc2c[nH]c3ccccc23)NC(=O)[C@@H](N)CSSC[C@@H](C(=O)N[C@@H](Cc2ccccc2)C(=O)N[C@@H](CCCCN)C(N)=O)NC(=O)[C@H](CC(C)C)NC1=O [compound 4] (H-CWKK(Ac)LCFK-NH2; disulfide 1-6; N-terminus and C-terminus assumed),effectively reduced the protein level of endogenous p53 and p21
